Assays:
Colletotrichum coffeanum = assay: Spore germination test, Colletotrichum coffeanum; assay type: cell-based; conditions: 48 hours, 20° C., vs untreated control
Procedure: (§1) 50 μl of a solution or suspension of an active ingredient according to the invention together with 50 μl of a spore suspension produced by washing spores of an agar culture with a nutrient solution that contained per liter 10 g of sugar, 1 g of glycol, 1 g of KH2 PO4 and 0.5 g of MgSO4 were introduced into the concave-ground portion of concave-ground microscope slides.
(§2) The microscope slides were stored at 20° C. for 48 hours in a Petri dish, the base of which was covered with a moistened filter paper.
(§3) Subsequently, the ratio of germinated and non-germinated spores was compared with an untreated control specimen.
(§4) The degree of activity was calculated as a percentage in accordance with the following formula: [formula]

Fusarium nivale = assay: Spore germination test, Fusarium nivale; assay type: cell-based; conditions: 48 hours, 20° C., vs untreated control
Procedure: as §1, §2, §3, §4

Fusarium culmorum = assay: Spore germination test, Fusarium culmorum; assay type: cell-based; conditions: 48 hours, 20° C., vs untreated control
Procedure: as §1, §2, §3, §4

Penicillium glaucum = assay: Spore germination test, Penicillium glaucum; assay type: cell-based; conditions: 48 hours, 20° C., vs untreated control
Procedure: as §1, §2, §3, §4

Verticillium dahliae = assay: Spore germination test, Verticillium dahliae; assay type: cell-based; conditions: 48 hours, 20° C., vs untreated control
Procedure: as §1, §2, §3, §4

Botrytis cinerea [1] = assay: Spore germination test, Botrytis cinerea; assay type: cell-based; conditions: 48 hours, 20° C., vs untreated control
Procedure: as §1, §2, §3, §4

Alternaria tenuis = assay: Spore germination test, Alternaria tenuis; assay type: cell-based; conditions: 48 hours, 20° C., vs untreated control
Procedure: as §1, §2, §3, §4

Botrytis cinerea [2] = assay: Fungicidal activity against Botrytis cinerea in broad beans; assay type: in vivo; conditions: 500 ppm spray, broad beans "Midget", after 6 days, 20° C., 95% humidity, vs untreated
Procedure: Broad beans of the "Midget" variety were grown to a height of approximately 10 cm. The plants were sprayed until dripping wet with spray liquors containing 500 ppm of active ingredient.
When the spray coating had dried, the plants were inoculated with a spore suspension of Botrytis cinerea. The plants were placed in a climatic cabinet at a constant 20° C. and an atmospheric humidity of 95%.
After 6 days, fungicidal activity was evaluated. The activity was ascertained in comparison with untreated specimens.
The degree of activity as a percentage was ascertained in accordance with the following formula [formula] The following were used as active ingredients: I 2-chloro-3,5-dinitrophenylacetic acid iodopropargyl ester

| SMILES | degree of activity (fungal toxicity with respect to fungal spores) (Colletotrichum coffeanum; 1 ppm) | degree of activity (fungal toxicity with respect to fungal spores) (Colletotrichum coffeanum; 2 ppm) | degree of activity (fungal toxicity with respect to fungal spores) (Colletotrichum coffeanum; 4 ppm) | degree of activity (fungal toxicity with respect to fungal spores) (Fusarium nivale; 1 ppm) | degree of activity (fungal toxicity with respect to fungal spores) (Fusarium nivale; 2 ppm) | degree of activity (fungal toxicity with respect to fungal spores) (Fusarium nivale; 4 ppm) | degree of activity (fungal toxicity with respect to fungal spores) (Fusarium culmorum; 1 ppm) | degree of activity (fungal toxicity with respect to fungal spores) (Fusarium culmorum; 2 ppm) | degree of activity (fungal toxicity with respect to fungal spores) (Fusarium culmorum; 4 ppm) | degree of activity (fungal toxicity with respect to fungal spores) (Penicillium glaucum; 1 ppm) | degree of activity (fungal toxicity with respect to fungal spores) (Penicillium glaucum; 2 ppm) | degree of activity (fungal toxicity with respect to fungal spores) (Penicillium glaucum; 4 ppm) | degree of activity (fungal toxicity with respect to fungal spores) (Verticillium dahliae; 1 ppm) | degree of activity (fungal toxicity with respect to fungal spores) (Verticillium dahliae; 2 ppm) | degree of activity (fungal toxicity with respect to fungal spores) (Verticillium dahliae; 4 ppm) | degree of activity (fungal toxicity with respect to fungal spores) (Botrytis cinerea [1]; 1 ppm) | degree of activity (fungal toxicity with respect to fungal spores) (Botrytis cinerea [1]; 2 ppm) | degree of activity (fungal toxicity with respect to fungal spores) (Botrytis cinerea [1]; 4 ppm) | degree of activity (fungal toxicity with respect to fungal spores) (Alternaria tenuis; 1 ppm) | degree of activity (fungal toxicity with respect to fungal spores) (Alternaria tenuis; 2 ppm) | further results |
| --- | --- | --- | --- | --- | --- | --- | --- | --- | --- | --- | --- | --- | --- | --- | --- | --- | --- | --- | --- | --- | --- |
| O=C(Cc1cc([N+](=O)[O-])c(Cl)cc1Cl)OCC#CI [E] | 100% | 100% | 100% | 100% | 100% | 100% | 100% | 100% | 100% | 100% | 100% | 100% | 30% | 30% | 40% | 30% | 30% | 40% | 100% | 100% | degree of activity (fungal toxicity with respect to fungal spores) (Alternaria tenuis; 4 ppm): 100% |
| O=C(Cc1cc([N+](=O)[O-])cc([N+](=O)[O-])c1Cl)OCC#CI [I] | – | – | – | – | – | – | – | – | – | – | – | – | – | – | – | – | – | – | – | – | % Activity against Botrytis cinerea in broad beans (Botrytis cinerea [2]): 80% |
| Cc1cc(C)c(CC(=O)OCC#CI)c(C)c1 [L] | – | – | – | – | – | – | – | – | – | – | – | – | – | – | – | – | – | – | – | – | % Activity against Botrytis cinerea in broad beans (Botrytis cinerea [2]): 20% |
| O=C(Cc1c(Cl)cccc1Cl)OCC#CI [C] | 95% | 95% | 95% | 100% | 100% | 100% | 95% | 95% | 95% | 60% | 90% | 90% | 100% | 100% | 100% | 95% | 95% | 100% | 95% | 95% | degree of activity (fungal toxicity with respect to fungal spores) (Alternaria tenuis; 4 ppm): 95% |
| O=C(Cc1ccc([N+](=O)[O-])cc1)OCC#CI [F] | – | 90% | – | – | 80% | – | – | 40% | – | – | 80% | – | – | 90% | – | – | 40% | – | – | 100% | – |
| O=C(OCC#CI)C(Cl)c1ccccc1 (centres unmarked) [D] | 80% | 90% | 95% | 60% | 80% | 90% | 90% | 95% | 95% | 90% | 95% | 95% | 80% | 80% | 95% | 80% | 80% | 90% | 80% | 90% | degree of activity (fungal toxicity with respect to fungal spores) (Alternaria tenuis; 4 ppm): 90% |
| O=C(OCC#CI)C(Br)c1ccc(Cl)cc1 (centres unmarked) [B] | 100% | 100% | 100% | 100% | 100% | 100% | 100% | 100% | 100% | 100% | 100% | 100% | 100% | 100% | 100% | 100% | 100% | 100% | 100% | 100% | degree of activity (fungal toxicity with respect to fungal spores) (Alternaria tenuis; 4 ppm): 100% |
| O=C(Cc1cc([N+](=O)[O-])c(Cl)c([N+](=O)[O-])c1Cl)OCC#CI [G] | – | 60% | – | – | 80% | – | – | 70% | – | – | 70% | – | – | 70% | – | – | 100% | – | – | 70% | – |
| O=C(Cc1ccc(Cl)cc1)OCC#CI [A] | 80% | 90% | 95% | 60% | 80% | 90% | 90% | 95% | 95% | 90% | 95% | 95% | 80% | 80% | 95% | 80% | 80% | 90% | 80% | 80% | degree of activity (fungal toxicity with respect to fungal spores) (Alternaria tenuis; 4 ppm): 90% |
| O=C(Cc1c(Cl)c([N+](=O)[O-])cc([N+](=O)[O-])c1Cl)OCC#CI [K] | – | – | – | – | – | – | – | – | – | – | – | – | – | – | – | – | – | – | – | – | % Activity against Botrytis cinerea in broad beans (Botrytis cinerea [2]): 30% |

Source: patent US4639541A, “Substituted phenylacetic acid iodopropargyl esters, biocidal agents containing same and process for manufacturing same” (priority 1984, dated 1987)
